Data: patent US9446039B2, “Aminoheteroaryl compounds as MTH1 inhibitors” (CEMM—FORSCHUNGSZENTRUM FÜR MOLEKULARE MEDIZIN GMBH, priority 2012, dated 2016)

Columns and labels:
Type in all cases: binding
[1] = target: T1, SW480 colon carcinoma cells lysate proteins (Homo sapiens, UniProt O00154); details: PreyGene ACOT7
T1 sequence (O00154 1-380): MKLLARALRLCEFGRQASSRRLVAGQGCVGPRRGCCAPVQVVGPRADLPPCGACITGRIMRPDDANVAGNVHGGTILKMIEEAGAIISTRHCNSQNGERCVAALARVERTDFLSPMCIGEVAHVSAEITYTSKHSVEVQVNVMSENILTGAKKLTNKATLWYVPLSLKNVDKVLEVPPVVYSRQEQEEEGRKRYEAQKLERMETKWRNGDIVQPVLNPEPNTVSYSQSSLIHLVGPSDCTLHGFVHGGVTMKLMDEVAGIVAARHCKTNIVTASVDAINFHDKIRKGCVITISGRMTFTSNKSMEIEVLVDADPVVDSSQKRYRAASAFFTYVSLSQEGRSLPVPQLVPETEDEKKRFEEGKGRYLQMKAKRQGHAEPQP

[2] = target: SW480 colon carcinoma cells lysate proteins (Homo sapiens, UniProt P06744); details: PreyGene GPI
[3] = target: SW480 colon carcinoma cells lysate proteins (Homo sapiens, UniProt P07355); details: PreyGene ANXA2
[4] = target: T2, SW480 colon carcinoma cells lysate proteins (Homo sapiens, UniProt P11586); details: PreyGene MTHFD1
T2 sequence (P11586 1-935): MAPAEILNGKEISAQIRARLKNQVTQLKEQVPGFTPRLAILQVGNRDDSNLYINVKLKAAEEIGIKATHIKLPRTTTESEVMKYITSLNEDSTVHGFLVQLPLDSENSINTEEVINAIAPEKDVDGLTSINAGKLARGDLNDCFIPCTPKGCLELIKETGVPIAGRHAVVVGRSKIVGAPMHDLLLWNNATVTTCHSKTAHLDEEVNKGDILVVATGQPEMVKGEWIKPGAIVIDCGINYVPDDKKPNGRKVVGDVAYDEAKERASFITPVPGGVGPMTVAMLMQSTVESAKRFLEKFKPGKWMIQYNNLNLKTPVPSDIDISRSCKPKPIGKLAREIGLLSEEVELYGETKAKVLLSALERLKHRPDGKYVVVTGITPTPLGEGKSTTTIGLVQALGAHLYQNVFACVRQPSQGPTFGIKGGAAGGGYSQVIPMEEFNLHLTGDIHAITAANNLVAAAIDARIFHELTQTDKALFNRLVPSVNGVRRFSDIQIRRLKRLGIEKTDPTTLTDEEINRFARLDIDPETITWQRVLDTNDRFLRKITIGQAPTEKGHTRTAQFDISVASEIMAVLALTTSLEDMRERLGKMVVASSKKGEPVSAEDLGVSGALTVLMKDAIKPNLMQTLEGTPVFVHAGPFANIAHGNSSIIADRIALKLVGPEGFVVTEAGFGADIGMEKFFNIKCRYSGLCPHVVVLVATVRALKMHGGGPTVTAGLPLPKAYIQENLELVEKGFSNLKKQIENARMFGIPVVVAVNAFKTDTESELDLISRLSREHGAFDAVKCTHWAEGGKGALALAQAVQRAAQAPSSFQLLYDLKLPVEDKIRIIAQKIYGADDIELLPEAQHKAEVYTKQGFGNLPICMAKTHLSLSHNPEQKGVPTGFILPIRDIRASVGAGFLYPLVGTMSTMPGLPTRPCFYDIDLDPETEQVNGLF

[5] = target: SW480 colon carcinoma cells lysate proteins (Homo sapiens, UniProt P28070); details: PreyGene PSMB4
[6] = target: T3, SW480 colon carcinoma cells lysate proteins (Homo sapiens, UniProt Q15084); details: PreyGene PDIA6
T3 sequence (Q15084 20-440): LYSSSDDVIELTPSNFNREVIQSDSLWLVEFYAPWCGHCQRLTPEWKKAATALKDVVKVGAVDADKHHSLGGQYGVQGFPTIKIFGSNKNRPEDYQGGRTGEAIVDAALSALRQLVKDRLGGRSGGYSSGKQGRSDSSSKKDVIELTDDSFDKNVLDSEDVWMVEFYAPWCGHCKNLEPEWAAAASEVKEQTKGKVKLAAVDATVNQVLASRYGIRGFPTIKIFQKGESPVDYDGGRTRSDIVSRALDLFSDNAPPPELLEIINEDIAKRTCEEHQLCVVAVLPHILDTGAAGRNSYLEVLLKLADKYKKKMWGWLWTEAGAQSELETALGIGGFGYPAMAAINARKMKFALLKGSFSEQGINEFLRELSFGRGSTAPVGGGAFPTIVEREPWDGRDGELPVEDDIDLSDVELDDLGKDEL

[7] = target: SW480 colon carcinoma cells lysate proteins (Homo sapiens, UniProt Q9Y230); details: PreyGene RUVBL2
Sequence of SW480 colon carcinoma cells lysate proteins (Homo sapiens, UniProt Q9Y230) (Q9Y230 whole entry): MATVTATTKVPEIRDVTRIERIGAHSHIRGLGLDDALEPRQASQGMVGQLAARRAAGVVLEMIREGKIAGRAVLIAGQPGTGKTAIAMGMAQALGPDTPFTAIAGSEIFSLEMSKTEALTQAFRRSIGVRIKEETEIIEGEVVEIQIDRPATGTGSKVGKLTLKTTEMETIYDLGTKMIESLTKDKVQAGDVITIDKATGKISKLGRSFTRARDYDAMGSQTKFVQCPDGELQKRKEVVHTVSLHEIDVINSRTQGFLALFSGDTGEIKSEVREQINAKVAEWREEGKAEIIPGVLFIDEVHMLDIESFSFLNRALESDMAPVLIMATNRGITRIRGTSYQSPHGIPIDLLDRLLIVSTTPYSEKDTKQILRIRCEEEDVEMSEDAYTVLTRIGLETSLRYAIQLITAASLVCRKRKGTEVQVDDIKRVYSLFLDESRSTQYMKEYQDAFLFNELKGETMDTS

Sequence of SW480 colon carcinoma cells lysate proteins (Homo sapiens, UniProt P07355) (P07355 whole entry): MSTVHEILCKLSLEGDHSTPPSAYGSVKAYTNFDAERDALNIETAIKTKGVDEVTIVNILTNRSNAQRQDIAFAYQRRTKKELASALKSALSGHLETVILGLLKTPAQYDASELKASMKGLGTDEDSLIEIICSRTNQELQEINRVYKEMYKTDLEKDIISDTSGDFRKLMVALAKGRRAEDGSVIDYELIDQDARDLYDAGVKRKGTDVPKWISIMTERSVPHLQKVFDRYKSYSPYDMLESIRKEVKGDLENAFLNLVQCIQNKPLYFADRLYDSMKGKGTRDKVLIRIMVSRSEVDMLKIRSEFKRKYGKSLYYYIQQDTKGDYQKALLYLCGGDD
Sequence of SW480 colon carcinoma cells lysate proteins (Homo sapiens, UniProt P28070) (P28070 46-264): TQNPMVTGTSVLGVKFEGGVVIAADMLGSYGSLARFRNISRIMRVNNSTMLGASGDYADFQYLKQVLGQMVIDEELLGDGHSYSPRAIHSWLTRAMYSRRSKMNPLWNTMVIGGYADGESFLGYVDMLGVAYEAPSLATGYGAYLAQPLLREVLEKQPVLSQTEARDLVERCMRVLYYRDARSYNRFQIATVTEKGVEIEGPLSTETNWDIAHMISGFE

## C[C@H](Oc1cc(-c2cnn(C3CCNCC3)c2)cnc1N)c1c(Cl)ccc(F)c1Cl [(5)-crizotinib]
[1]
  AvgP: 0.2785
  SC.Exp. 1-1: 1
  SC.Exp. 1-2: 2
  SC.Exp. 2-1: 0
  SC.Exp. 2-2: 0
  Sum (SC.Exp.): 3
[2]
  AvgP: 0.3986
  SC.Exp. 1-1: 4
  SC.Exp. 1-2: 5
  SC.Exp. 2-1: 0
  SC.Exp. 2-2: 0
  Sum (SC.Exp.): 9
[3]
  AvgP: 0.41
  SC.Exp. 1-1: 13
  SC.Exp. 1-2: 13
  SC.Exp. 2-1: 0
  SC.Exp. 2-2: 0
  Sum (SC.Exp.): 26
[4]
  AvgP: 0.2666
  SC.Exp. 1-1: 2
  SC.Exp. 1-2: 2
  SC.Exp. 2-1: 0
  SC.Exp. 2-2: 0
  Sum (SC.Exp.): 4
[5]
  AvgP: 0.1875
  SC.Exp. 1-1: 2
  SC.Exp. 1-2: 0
  SC.Exp. 2-1: 0
  SC.Exp. 2-2: 0
  Sum (SC.Exp.): 2
[6]
  AvgP: 0.4427
  SC.Exp. 1-1: 3
  SC.Exp. 1-2: 4
  SC.Exp. 2-1: 0
  SC.Exp. 2-2: 0
  Sum (SC.Exp.): 7
[7]
  AvgP: 0.4297
  SC.Exp. 1-1: 3
  SC.Exp. 1-2: 3
  SC.Exp. 2-1: 0
  SC.Exp. 2-2: 0
  Sum (SC.Exp.): 6
